Conditions: for mass density: Fluid (supercritical or subcritical phases), Vibrating tube method; for vapor or sublimation pressure: Liquid

C=CCC [1-butene]
Conditions	mass density [kg/m3]
273.24 K, 612 kPa	619.16
273.24 K, 4987 kPa	624.98
273.24 K, 9990 kPa	631.06
273.24 K, 15004 kPa	636.64
273.24 K, 20005 kPa	641.81
273.24 K, 24989 kPa	646.61
273.24 K, 29996 kPa	651.13
273.24 K, 34991 kPa	655.38
273.24 K, 39998 kPa	659.41
278.25 K, 610 kPa	613.23
278.25 K, 4982 kPa	619.35
278.25 K, 9991 kPa	625.73
278.25 K, 14984 kPa	631.55
278.25 K, 20001 kPa	636.92
278.25 K, 24985 kPa	641.91
278.25 K, 30007 kPa	646.61
278.25 K, 34997 kPa	650.99
278.25 K, 39995 kPa	655.14
283.26 K, 610 kPa	607.22
283.26 K, 4984 kPa	613.69
283.26 K, 9995 kPa	620.39
283.26 K, 15000 kPa	626.47
283.26 K, 19989 kPa	632.05
283.26 K, 24987 kPa	637.22
283.26 K, 30013 kPa	642.08
283.26 K, 35003 kPa	646.62
283.26 K, 39990 kPa	650.88
288.27 K, 611 kPa	601.14
288.27 K, 14998 kPa	621.36
288.28 K, 4990 kPa	607.98
288.28 K, 9997 kPa	615.01
288.28 K, 19990 kPa	627.16
288.28 K, 24993 kPa	632.55
288.28 K, 30009 kPa	637.56
288.28 K, 35002 kPa	642.25
288.28 K, 39995 kPa	646.65
293.29 K, 611 kPa	594.95
293.29 K, 4994 kPa	602.2
293.29 K, 9995 kPa	609.58
293.29 K, 14989 kPa	616.2
293.29 K, 19984 kPa	622.26
293.29 K, 24990 kPa	627.84
293.29 K, 29991 kPa	633.02
293.29 K, 34994 kPa	637.87
293.29 K, 39994 kPa	642.42
298.3 K, 613 kPa	588.66
298.3 K, 4990 kPa	596.33
298.3 K, 10001 kPa	604.11
298.3 K, 14994 kPa	611.04
298.3 K, 19995 kPa	617.35
298.3 K, 24993 kPa	623.14
298.3 K, 30005 kPa	628.51
298.3 K, 35015 kPa	633.51
298.3 K, 40003 kPa	638.19
303.31 K, 661 kPa	582.33
303.31 K, 9983 kPa	598.56
303.31 K, 15001 kPa	605.85
303.31 K, 19987 kPa	612.4
303.31 K, 24994 kPa	618.42
303.31 K, 30008 kPa	623.99
303.31 K, 35004 kPa	629.15
303.32 K, 4995 kPa	590.39
303.32 K, 40006 kPa	633.97
308.32 K, 4985 kPa	584.34
308.32 K, 9991 kPa	592.99
308.32 K, 14996 kPa	600.61
308.32 K, 19992 kPa	607.46
308.32 K, 25004 kPa	613.71
308.32 K, 30007 kPa	619.45
308.32 K, 34999 kPa	624.79
308.32 K, 40000 kPa	629.76
308.33 K, 713 kPa	575.87
313.2 K, 947 kPa	569.83
313.2 K, 4992 kPa	578.34
313.2 K, 9990 kPa	587.43
313.2 K, 14997 kPa	595.4
313.2 K, 19994 kPa	602.53
313.2 K, 24994 kPa	609.01
313.2 K, 30011 kPa	614.95
313.2 K, 35009 kPa	620.44
313.2 K, 39997 kPa	625.59
318.21 K, 1037 kPa	563.26
318.21 K, 5017 kPa	572.17
318.21 K, 10015 kPa	581.78
318.21 K, 15007 kPa	590.11
318.21 K, 20018 kPa	597.56
318.21 K, 25018 kPa	604.28
318.21 K, 30002 kPa	610.4
318.21 K, 35001 kPa	616.07
318.21 K, 39996 kPa	621.35
323.21 K, 1110 kPa	556.48
323.21 K, 9982 kPa	575.95
323.21 K, 14984 kPa	584.73
323.21 K, 25001 kPa	599.51
323.21 K, 30001 kPa	605.88
323.21 K, 34994 kPa	611.74
323.21 K, 40004 kPa	617.19
323.22 K, 5006 kPa	565.82
323.22 K, 19997 kPa	592.52
328.22 K, 1187 kPa	549.53
328.22 K, 4989 kPa	559.32
328.22 K, 9998 kPa	570.14
328.22 K, 14996 kPa	579.36
328.22 K, 19992 kPa	587.47
328.22 K, 25011 kPa	594.75
328.22 K, 30003 kPa	601.33
328.22 K, 34986 kPa	607.37
328.22 K, 40001 kPa	613
333.22 K, 1276 kPa	542.42
333.22 K, 4994 kPa	552.72
333.22 K, 10001 kPa	564.22
333.22 K, 14993 kPa	573.92
333.22 K, 20000 kPa	582.4
333.22 K, 24986 kPa	589.92
333.22 K, 29987 kPa	596.76
333.22 K, 35007 kPa	603.04
333.22 K, 40005 kPa	608.82
338.22 K, 1372 kPa	535.11
338.22 K, 4996 kPa	545.96
338.22 K, 9985 kPa	558.18
338.22 K, 14991 kPa	568.42
338.22 K, 19988 kPa	577.27
338.22 K, 25002 kPa	585.14
338.22 K, 29995 kPa	592.2
338.22 K, 34993 kPa	598.67
338.22 K, 39988 kPa	604.63
343.22 K, 1477 kPa	527.59
343.22 K, 4989 kPa	538.99
343.22 K, 9987 kPa	552.06
343.22 K, 14985 kPa	562.84
343.22 K, 19995 kPa	572.12
343.22 K, 24993 kPa	580.29
343.22 K, 29995 kPa	587.63
343.22 K, 34993 kPa	594.3
343.22 K, 39996 kPa	600.44
348.22 K, 9989 kPa	545.85
348.22 K, 24986 kPa	575.42
348.23 K, 1592 kPa	519.85
348.23 K, 4984 kPa	531.84
348.23 K, 14988 kPa	557.22
348.23 K, 20000 kPa	566.94
348.23 K, 29995 kPa	583.02
348.23 K, 35000 kPa	589.94
348.23 K, 39996 kPa	596.25
353.23 K, 1715 kPa	511.85
353.23 K, 4999 kPa	524.53
353.23 K, 9991 kPa	539.5
353.23 K, 14992 kPa	551.53
353.23 K, 19991 kPa	561.68
353.23 K, 24984 kPa	570.52
353.23 K, 30003 kPa	578.41
353.23 K, 34996 kPa	585.54
353.23 K, 40004 kPa	592.05
358.23 K, 1846 kPa	503.54
358.23 K, 4995 kPa	516.91
358.23 K, 9989 kPa	533.03
358.23 K, 14984 kPa	545.76
358.23 K, 19997 kPa	556.43
358.23 K, 25002 kPa	565.63
358.23 K, 30007 kPa	573.81
358.23 K, 34991 kPa	581.14
358.23 K, 39997 kPa	587.85
363.23 K, 1991 kPa	494.93
363.23 K, 4996 kPa	509.02
363.23 K, 9987 kPa	526.43
363.23 K, 14995 kPa	539.91
363.23 K, 19993 kPa	551.05
363.23 K, 24987 kPa	560.63
363.23 K, 29994 kPa	569.1
363.23 K, 35013 kPa	576.7
363.23 K, 39993 kPa	583.59
368.23 K, 2145 kPa	485.95
368.23 K, 4994 kPa	500.81
368.23 K, 10001 kPa	519.71
368.23 K, 15000 kPa	534.01
368.23 K, 19992 kPa	545.69
368.23 K, 24989 kPa	555.66
368.23 K, 29994 kPa	564.43
368.23 K, 34993 kPa	572.27
368.23 K, 39995 kPa	579.38
373.23 K, 2313 kPa	476.57
373.23 K, 10000 kPa	512.83
373.23 K, 19991 kPa	540.27
373.23 K, 24984 kPa	550.66
373.23 K, 30002 kPa	559.76
373.23 K, 35005 kPa	567.88
373.23 K, 39997 kPa	575.19
373.24 K, 5000 kPa	492.29
373.24 K, 15001 kPa	528.02
378.23 K, 4992 kPa	483.29
378.23 K, 40004 kPa	571.03
378.24 K, 2492 kPa	466.71
378.24 K, 9989 kPa	505.75
378.24 K, 14998 kPa	521.94
378.24 K, 20001 kPa	534.83
378.24 K, 24999 kPa	545.69
378.24 K, 30000 kPa	555.11
378.24 K, 35012 kPa	563.49
383.24 K, 2679 kPa	456.23
383.24 K, 5001 kPa	473.89
383.24 K, 9994 kPa	498.55
383.24 K, 14998 kPa	515.79
383.24 K, 19999 kPa	529.35
383.24 K, 24986 kPa	540.63
383.24 K, 29986 kPa	550.4
383.24 K, 34993 kPa	559.06
383.24 K, 39986 kPa	566.81
388.24 K, 2883 kPa	445.15
388.24 K, 4993 kPa	463.82
388.24 K, 9989 kPa	491.12
388.24 K, 14987 kPa	509.52
388.24 K, 20000 kPa	523.81
388.24 K, 24990 kPa	535.58
388.24 K, 29995 kPa	545.72

Conditions	vapor or sublimation pressure [kPa]
289.42 K	225.85
294 K	260.86
301.73 K	329.59
306.48 K	378.14
315.34 K	484.39
321.69 K	572.17
329.51 K	695.71
337.04 K	833.9
337.68 K	845.55
345.48 K	1009.7
353.71 K	1207.9
358.53 K	1337.5
361.4 K	1416.5
366.99 K	1590.4
367.1 K	1594.8
379.44 K	2014.2
386.99 K	2310.4
